Results taken from PubChem BioAssay (NCI).
Values joined by “and” are separate entries in the source; they are usually repeats but may differ in a detail not shown here. Equal entries are not always repeated.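 Five compound concentrations were applied to cells in 96-well plates for 48 hours; endpoints were derived by simple linear interpolation of the resulting dose-response curve. At the GI50, growth is halved. TGI denotes the concentration required for complete inhibition of growth.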

Columns and labels:
Assay in all cases: NCI tumour cell line growth inhibition, 48 h
[1] = test system: OVCAR-8 ovarian
[2] = test system: HT29 colon
[3] = test system: NCI-H522 lung
[4] = test system: COLO 205 colon
[5] = test system: MDA-MB-435
[6] = test system: T-47D breast
[7] = test system: U251 CNS
[8] = test system: A549 NSCLC
[9] = test system: HS 578T breast
[10] = test system: DU-145 prostate

Structure (SMILES) | GI50 [1] | TGI [1] | GI50 [2] | TGI [2] | GI50 [3] | TGI [3] | GI50 [4] | TGI [4] | GI50 [5] | TGI [5] | GI50 [6] | TGI [6] | GI50 [7] | TGI [7] | GI50 [8] | TGI [8] | GI50 [9] | TGI [9] | GI50 [10] | TGI [10]
NNC(=S)N/N=C/c1ccccn1 | 2280 nM | > 100000 nM | 3540 nM | > 100000 nM | 258 nM | 859 nM | 2390 nM | > 100000 nM | 5200 nM | > 100000 nM | 2440 nM | > 100000 nM | 1990 nM | > 100000 nM | 3140 nM | > 100000 nM | 3860 nM | > 100000 nM | 1850 nM | > 100000 nM
O=C1NC(=N[C@@H]2C[C@H]2c2ccccc2)S/C1=C\c1ccc2ncccc2c1 | 2050 nM | 9690 nM | 1120 nM | 9040 nM | 776 nM | 3120 nM | 813 nM | 2350 nM | 688 nM | 2850 nM | 1810 nM | 13800 nM | 875 nM | 6940 nM | 976 nM | 6710 nM | 1250 nM | 11600 nM | 1940 nM | 24900 nM
CCCCN(CCCC)C(=O)C(=O)C(C(=O)C(=O)OC)c1nc2ccccc2o1 (configuration not stated) |  | > 100000 nM |  | > 100000 nM |  | > 100000 nM |  | > 100000 nM |  |  |  |  |  | > 100000 nM |  | > 100000 nM |  |  |  | 
CN1C(=O)CNS1(=O)=O |  | > 100000 nM |  | > 100000 nM |  |  |  |  |  |  |  |  |  | > 100000 nM |  | > 100000 nM |  |  |  | 
CCOC(=O)c1c2c(n(Cc3ccccc3)c1C)-c1nc[nH]c1C(=O)C2=O | 14800 nM | 28000 nM | 28900 nM | 76400 nM | 15000 nM | 28800 nM | 20200 nM | 35100 nM | 16900 nM | 31300 nM | 11400 nM | 30700 nM | 14700 nM | 27800 nM | 11800 nM | 25900 nM | 29300 nM | 88100 nM | 9830 nM | 21500 nM
CC[C@@]1(O)C(=O)OCc2c1cc1n(c2=O)Cc2cc3c(OC)cccc3nc2-1 |  | 1900 nM |  | > 43700 nM | 28 nM | 2120 nM |  | 5250 nM |  |  | > 100000 nM | > 100000 nM | 8.58 nM |  |  | 7590 nM |  | > 100000 nM | 2.66 nM | 
N#C/C(=C\c1ccc([N+](=O)[O-])cc1)n1nnc2cc(F)c(F)cc21 | 2140 nM | 6170 nM | 1870 nM | 3640 nM | 1660 nM | 3790 nM | 1890 nM | 3930 nM | 2320 nM | 5850 nM | 1090 nM | 2740 nM | 1660 nM | 3270 nM | 2620 nM | 9040 nM | 2650 nM | 11400 nM | 1720 nM | 3140 nM
COC(=O)Nc1nc2ccc(C(=O)C3CC3)cc2[nH]1 | 668 nM | > 100000 nM | 295 nM | 6310 nM | 426 nM | 16400 nM | 392 nM | 10400 nM | 134 nM | 324 nM |  |  | 426 nM | > 100000 nM | 452 nM | > 100000 nM | 280 nM | 853 nM | 256 nM | 1110 nM
N#CCC(=O)N/N=C(/C(=O)Nc1ccccc1)C1C(=O)N(c2ccccc2)N=C1N (configuration not stated) |  | > 100000 nM |  | > 100000 nM |  | > 100000 nM |  | > 100000 nM |  |  |  |  |  | > 100000 nM |  | > 100000 nM |  |  |  | 
Cn1cnc([N+](=O)[O-])c1Sc1nccn1-c1ccccc1 |  | > 100000 nM |  | > 100000 nM |  | 24500 nM |  | > 100000 nM |  |  |  |  |  | > 100000 nM |  | > 100000 nM |  |  |  | 
S=c1sc2sc(=S)sc2s1 |  | > 100000 nM |  | 78900 nM |  | > 100000 nM |  | > 100000 nM |  |  |  |  |  | 49000 nM |  | > 100000 nM |  |  |  | 
CCOC(=O)c1sc(Nc2cc(Cl)ccc2Cl)nc1C |  | > 100000 nM |  | > 100000 nM |  | > 100000 nM |  | > 100000 nM |  |  |  |  |  | > 100000 nM |  | > 100000 nM |  |  |  | 
COC(=O)CC12CC(NC(=O)c3csc([C@@H](C[C@H](C(C)C)N(C)C(=O)[C@@H](NC(=O)[C@H]4CCCCN4C)C(C)C)OC(C)=O)n3)(C1)C2 | 5.45 nM and 13.1 nM | > 33300 nM | 3.64 nM and 5.5 nM | > 33300 nM | 1.07 nM and 3.33 nM | 5.93 nM and 14.9 nM | 2.7 nM and 6.84 nM | 9.61 nM and 40.1 nM | 0.341 nM and 3.33 nM | 1.65 nM and 4.49 nM |  |  | 3.6 nM and 13 nM | > 33300 nM | 7.77 nM and 13 nM | > 33300 nM | 3.96 nM and 9.02 nM | > 33300 nM | 3.52 nM and 8.25 nM | 
Cc1cn2c(/C=N/NC3=NCCN3)c(-c3ccc(Cl)c([N+](=O)[O-])c3)nc2s1 | 1120 nM | 2450 nM |  |  |  |  | 1430 nM | > 50000 nM |  |  | 1750 nM | > 50000 nM | 947 nM | 1750 nM |  |  | 1500 nM | 3970 nM | 789 nM | 1890 nM
Cc1cc2c(=O)cc(-c3ccc(Cl)c(Cl)c3)oc2c(C(=O)O)c1C |  | > 100000 nM |  | > 100000 nM |  | > 100000 nM |  | > 100000 nM |  |  |  |  |  | > 100000 nM |  | > 100000 nM |  |  |  | 
Nc1n[nH]c2ccc([C@H]3[C@@H]4C5CCC(C5)[C@@H]4c4c(ccc5[nH]ncc45)N3S(=O)(=O)C3CC3)cc12 (some centres not stated) | 213 nM | > 41100 nM | 171 nM | 8520 nM | 183 nM | 2560 nM | 193 nM | 6310 nM | 141 nM | 1350 nM |  |  | 208 nM | 17500 nM | 237 nM | > 25600 nM | 170 nM | 3310 nM | 212 nM | 26700 nM
Cc1ccc(C)c(N2C(=O)C(=O)C(c3nc4ccccc4s3)C(=O)C2=O)c1 |  | > 100000 nM |  | > 100000 nM |  | > 100000 nM |  | > 100000 nM |  |  |  |  |  | > 100000 nM |  | > 100000 nM |  |  |  | 
